≈ marks a conversion by molar mass, not a printed value. Where no end group is shown, it is not given here.
Tests used:
B. subtilis PCM 2224 = assay: MIC, broth microdilution; assay type: cell-based, Bacillus subtilis; settings: B. subtilis PCM 2224, 24 h
From the text: (§1) Escherichia coli (PCM 2057 = ATCC 25922), Staphylococcus aureus (PCM 2054 = ATCC 25923), Staphylococcus epidermidis (PCM 2118 = ATCC 14990), Bacillus subtilis (PCM 2224 = ATCC 9799), Bacillus cereus (PCM 482 = ATCC 10702) and Pseudomonas aeruginosa (PCM 499 = ATCC 10145) were obtained from the Polish Collection of Microorganisms. Fungi strains Candida albicans (CCM 8186 = CNTC 49/64), Candida glabrata (CCM 8270 = ATCC 90030), Candida parapsilosis (CCM 8260 = ATCC 22019) and Candida krusei (CCM 8271 = ATCC 6258) were acquired from the Czech Collection of Microorganisms. S. aureus USA300 (wild type strain), the reference strain of Klebsiella pneumoniae (ATCC 13883) and clinical isolates of Pseudomonas aeruginosa (PA1, PA2) collected from nonrelated patients admitted to the Stefan Zeromski Specialist Municipal Hospital in Krakow (Poland) were kindly provided by the research group of the Department of Microbiology, Faculty of Biochemistry, Biophysics and Biotechnology, Jagiellonian University, Krakow, Poland.
(§2) Luria-Bertani broth (LB) and Sabouraud Dextrose broth (SB) (Biocorp, Poland) were used for cultivation of bacteria and fungi strains, respectively. The antimicrobial activity of the peptides were analyzed through determination of MIC (minimal inhibitory concentration) parameters according to Clinical and Laboratory Standards (CLSI) guidelines developed for aerobic bacteria and yeasts, respectively. Mueller-Hinton broth (MHB) was used as the working medium for all bacterial strains, while in the case of fungi, RPMI-1640 (with L-glutamine, without sodium bicarbonate) growth medium buffered with MOPS (morpholinepropanesulfonic acid) and supplemented with 2% glucose was used. Inoculum was prepared from freshly grown cultures of microorganisms at their exponential phase of growth. […] Plates were then incubated for 24 h at 37 °C in the case of bacteria and at 35 °C in the case of fungi. After that time, absorbance was read at 590 nm with a Perkin Elmer plate reader. Cultures without peptide were treated as positive control, while uninoculated media were defined as negative control. All measurements were run at least in triplicate.

C.glabrata CCM 8270 = assay: MIC, broth microdilution; assay type: cell-based, Candida glabrata; settings: C.glabrata CCM 8270, 24 h
From the text: as §1, §2

E. coli PCM 2057 = assay: MIC, broth microdilution; assay type: cell-based, Escherichia coli; settings: E. coli PCM 2057, 24 h
From the text: as §1, §2

C.albicans CCM 8186 = assay: MIC, broth microdilution; assay type: cell-based, Candida albicans; settings: C.albicans CCM 8186, 24 h
From the text: as §1, §2

Gelation in water = assay type: physicochemical; settings: for gel formation in water: within the range of analyzed concentrations
keratinocytes (HaCaT) = assay: Cytotoxicity, MTT assay; assay type: cell-based, human; settings: 24 h
Description: (§3) Human dermal fibroblasts were obtained as previously reported from biopsies of healthy human skin of three donors undergoing a surgery. All procedures were approved by the Ethics Committee of Medicinal University of Gdansk (NKEBN/483/2011 and NKBBN/745/2019-2020). Immortalized human HaCaT keratinocytes (DKFZ Heidelberg, Germany) were obtained commercially.
(§4) Both types of cell lines were grown in Dulbecco′s Modified Eagle′s Medium (DMEM) (Sigma-Aldrich, Germany), containing […] of glucose, […] of L- glutamine, sodium pyruvate and sodium bicarbonate. Additionally, the medium was supplemented with 10% FCS (fetal calf serum, Sigma-Aldrich, Germany), 100 U/mL of penicillin and 100 μg/mL of streptomycin (Sigma-Aldrich, Germany). The cells were grown in standard culture dishes (BD, USA) in a humidified atmosphere with 5% CO2 at […], and the medium was changed every 2 days.
(§5) The fibroblasts and keratinocytes were seeded at density of 5500 cells per well into 96-well plates suspended in a medium supplemented with 10% FCS. After 24 h from seeding, the media were exchanged with serum- and antibiotic-free DMEM and tested peptides, dissolved in sterile water, which were added, yielding a final concentration ranging from 1 to 50 μg/mL. The cells were then incubated for the next 24 h. At the end of the experiment, the cells were treated with 20 μL of MTT (5 mg/mL in PBS). After 3 h of incubation in the presence of MTT dye, the DMEM medium was discarded and replaced with 6 mM HCl in isopropanol. When the purple crystals of formazan were fully solubilized, absorbance at 570 nm was read.

primary fibroblasts = assay: Cytotoxicity, MTT assay; assay type: cell-based, human; settings: 24 h
Description: as §3, §4, §5

S. epidermidis PCM 2118 = assay: MIC, broth microdilution; assay type: cell-based, Staphylococcus epidermidis; settings: S. epidermidis PCM 2118, 24 h
From the text: as §1, §2

S. aureus PCM 2054 = assay: MIC, broth microdilution; assay type: cell-based, Staphylococcus aureus; settings: S. aureus PCM 2054, standard Mueller-Hinton broth, 24 h
From the text: as §1, §2

C.parapsilosis CCM 8260 = assay: MIC, broth microdilution; assay type: cell-based, Candida parapsilosis; settings: C.parapsilosis CCM 8260, 24 h
From the text: as §1, §2

B. cereus PCM 482 = assay: MIC, broth microdilution; assay type: cell-based, Bacillus cereus; settings: B. cereus PCM 482, 24 h
From the text: as §1, §2

P. aeruginosa PCM 499 = assay: MIC, broth microdilution; assay type: cell-based, Pseudomonas aeruginosa; settings: P. aeruginosa PCM 499, 24 h
From the text: as §1, §2

C.krusei CCM 8271 = assay: MIC, broth microdilution; assay type: cell-based, Candida krusei; settings: C.krusei CCM 8271, 24 h
From the text: as §1, §2

K.pneumoniae ATCC 13883 = assay type: cell-based, Klebsiella pneumoniae; settings: ATCC 13883, 24 h
From the text: as §1, §2

P. aeruginosa PA2 = assay type: cell-based, Pseudomonas aeruginosa; settings: PA2, 24 h
From the text: as §1, §2

P. aeruginosa PA1 = assay type: cell-based, Pseudomonas aeruginosa; settings: PA1, 24 h
From the text: as §1, §2

## CCCCC(=O)NCCC(=O)N[C@@H](Cc1c[nH]cn1)C(=O)O [Compound C5-CAR, CH3(CH2)3C(O)-βAH]
B. subtilis PCM 2224
  MIC100: Non-inhibitory
C.glabrata CCM 8270
  MIC100: Non-inhibitory
E. coli PCM 2057
  MIC100: Non-inhibitory
C.albicans CCM 8186
  MIC100: Non-inhibitory
Gelation in water; concentrations of up to 5 mg/mL
  gelation in water: gelation in water was not observed
Keratinocytes (HaCaT)
  IC50: >50 µg/mL
Primary fibroblasts
  IC50: >50 µg/mL
S. epidermidis PCM 2118
  MIC100: Non-inhibitory
S. aureus PCM 2054
  MIC100: Non-inhibitory
C.parapsilosis CCM 8260
  MIC100: Non-inhibitory
B. cereus PCM 482
  MIC100: Non-inhibitory
P. aeruginosa PCM 499
  MIC100: Non-inhibitory
C.krusei CCM 8271
  MIC100: Non-inhibitory

## CCCCCCCCCCCC(=O)NCCC(=O)N[C@@H](Cc1c[nH]cn1)C(=O)O [Compound C12-CAR, CH3(CH2)10C(O)-βAH]
B. subtilis PCM 2224
  MIC100: Non-inhibitory
C.glabrata CCM 8270
  MIC100: Non-inhibitory
E. coli PCM 2057
  MIC100: Non-inhibitory
C.albicans CCM 8186
  MIC100: Non-inhibitory
Gelation in water; concentration of 1 mg/mL
  gelation of water solution: underwent gelation
Gelation in water
  gel formation in water: formed self-standing gels in water
Keratinocytes (HaCaT)
  IC50: >50 µg/mL
Primary fibroblasts
  IC50: >50 µg/mL
S. epidermidis PCM 2118
  MIC100: Non-inhibitory
S. aureus PCM 2054
  MIC100: Non-inhibitory
C.parapsilosis CCM 8260
  MIC100: Non-inhibitory
B. cereus PCM 482
  MIC100: Non-inhibitory
P. aeruginosa PCM 499
  MIC100: Non-inhibitory
C.krusei CCM 8271
  MIC100: Non-inhibitory

## CCCCCCCCCCCCCCCC(=O)NCCC(=O)N[C@@H](Cc1c[nH]cn1)C(=O)O [Compound C16-CAR, CH3(CH2)14C(O)-βAH]
B. subtilis PCM 2224
  MIC100: Non-inhibitory
C.glabrata CCM 8270
  MIC100: Non-inhibitory
E. coli PCM 2057
  MIC100: Non-inhibitory
C.albicans CCM 8186
  MIC100: Non-inhibitory
Gelation in water
  gel formation in water: formed self-standing gels in water
Keratinocytes (HaCaT)
  IC50: 25 µg/mL (≈ 53.8 µM)
Primary fibroblasts
  IC50: 12.5 µg/mL (≈ 26.9 µM)
S. epidermidis PCM 2118
  MIC100: Non-inhibitory
S. aureus PCM 2054
  MIC100: Non-inhibitory
C.parapsilosis CCM 8260
  MIC100: Non-inhibitory
B. cereus PCM 482
  MIC100: Non-inhibitory
P. aeruginosa PCM 499
  MIC100: Non-inhibitory
C.krusei CCM 8271
  MIC100: Non-inhibitory

## IKKILSKIKKLL-NH2 (C-terminus assumed) [DK5, reference compound]
K.pneumoniae ATCC 13883
  MIC100: >200 µg/mL
Keratinocytes (HaCaT)
  IC50: >50 µg/mL
Primary fibroblasts
  IC50: >50 µg/mL
P. aeruginosa PA2
  MIC100: 100 µg/mL
P. aeruginosa PA1
  MIC100: 100 µg/mL
